Results on 12 compounds are retold here after ChEMBL document CHEMBL1201862, “PubChem BioAssay data set” (2004).

Among the test systems are SR; HCT-15; CCRF-CEM; MOLT-4; HT-29; 786-0; EKVX; UACC-62; UACC-257; U-251; SNB-19; NCI-H460; A498; SW-620; OVCAR-4; ACHN; SF-295; NCI-H522; NCI-H226.
Assay in all cases: inhibition of tumour cell growth, NCI panel, 48 h

Each structure is given as a SMILES string.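 Compound exposure: 48 hours, 5 concentrations, 96-well plates. Abbreviation: GI50, concentration required for 50% inhibition of growth.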 Calls of active or inactive are those of the source. Rule as the data show it: active = GI50 up to about 1.1 µM and inactive = higher. Where only a bound is given, the exact number is not on record here.

For the compound `COC(=O)CCC1CCc2c(OC)ccc(OC)c2C1=O` (stereo unspecified), the GI50 is > 100 µM (inactive) in the experiment with SR; above 100 µM with HCT-15; > 100 µM (inactive) in the experiment on CCRF-CEM; > 100 µM (inactive) with MOLT-4; > 100 µM (inactive) in the experiment on HT-29; > 100 µM (inactive) in the experiment with 786-0. The GI50 in the experiment on EKVX, in the experiment with UACC-62, in the experiment with UACC-257, in the experiment on U-251, in the experiment on SNB-19 and with NCI-H460 was > 100 µM (inactive) each time. For the same compound, the GI50 in the experiment on A498 is > 10 µM (inactive); with SW-620, > 100 µM (inactive); in the experiment on OVCAR-4, > 100 µM (inactive); in the experiment on ACHN, > 100 µM (inactive); in the experiment with SF-295 it was > 100 µM (inactive); in the experiment with NCI-H522, > 100 µM (inactive).
For `CCOC(=O)c1cn(C)nc1N/C(C)=C\C(=O)c1ccccc1`, the GI50 was > 100 µM (inactive) in the experiment with SR; above 100 µM in the experiment with HCT-15; > 100 µM (inactive) in the experiment on CCRF-CEM; > 100 µM (inactive) in the experiment with MOLT-4; 60.1 µM (inactive) in the experiment with HT-29; > 100 µM (inactive) with 786-0. In addition, the GI50 is > 100 µM (inactive) in the experiment on EKVX; > 100 µM (inactive) with UACC-62; > 100 µM (inactive) in the experiment on UACC-257; 91.4 µM (inactive) in the experiment on NCI-H226; > 100 µM (inactive) in the experiment with U-251; > 100 µM (inactive) in the experiment on SNB-19. Further, the GI50 in the experiment on NCI-H460, with SW-620, with OVCAR-4, with ACHN, with SF-295 and with NCI-H522 was > 100 µM (inactive) each time.
Take `O=C1O[C@]2(c3ccccc3)C(c3ccccc3)=C[C@]2(C(=O)c2ccccc2)C1=O`: the GI50 in the experiment on SR is 10.7 µM (inactive); with HCT-15, 29.5 µM; in the experiment on MOLT-4, 4.02 µM (inactive); in the experiment on HT-29, 55 µM (inactive); with 786-0, 26.2 µM (inactive); in the experiment with EKVX, 34 µM (inactive). Moreover, the GI50 is 29.8 µM (inactive) in the experiment with UACC-62; 30.3 µM (inactive) with UACC-257; 29.9 µM (inactive) in the experiment with NCI-H226; 31.6 µM (inactive) with U-251; 36.6 µM (inactive) with SNB-19; 27.1 µM (inactive) in the experiment with NCI-H460. The GI50 is 35.5 µM (inactive) in the experiment on A498; 19.1 µM (inactive) in the experiment with SW-620; 39.1 µM (inactive) in the experiment on OVCAR-4; 35.2 µM (inactive) in the experiment with ACHN; 47 µM (inactive) in the experiment with SF-295; 21.1 µM (inactive) in the experiment on NCI-H522.
On to `O=C1C=CC2(C=C1)O[C@H](CCc1ccccc1)[C@@H](CCc1ccccc1)O2`, for which the GI50 is > 100 µM (inactive) in the experiment on SR; above 100 µM in the experiment with HCT-15; > 100 µM (inactive) with CCRF-CEM; 81.8 µM (inactive) with MOLT-4; > 100 µM (inactive) with HT-29; > 100 µM (inactive) with 786-0. For the same compound, the GI50 in the experiment on EKVX was 24 µM (inactive); in the experiment on UACC-62 it was > 100 µM (inactive); in the experiment on UACC-257, > 100 µM (inactive); with NCI-H226 it was > 100 µM (inactive); in the experiment with U-251 it was 20.2 µM (inactive); with SNB-19, > 100 µM (inactive). Besides, the GI50 in the experiment with NCI-H460 is > 100 µM (inactive); in the experiment with A498, > 100 µM (inactive); with SW-620 it was > 100 µM (inactive); in the experiment with OVCAR-4 it was 85.5 µM (inactive); in the experiment with ACHN, > 100 µM (inactive); in the experiment with SF-295 it was > 100 µM (inactive).
Turning to `CN(C)/C=N/c1ccc2[nH]c3ccccc3c2c1`, the GI50 with SR is 12.2 µM (inactive); with HCT-15, 20.6 µM; in the experiment with CCRF-CEM, 30.9 µM (inactive); with MOLT-4, 27.3 µM (inactive); in the experiment on HT-29 it was 19.8 µM (inactive); in the experiment on 786-0, 25.1 µM (inactive). Moreover, the GI50 is 65 µM (inactive) in the experiment on EKVX; 21 µM (inactive) in the experiment with UACC-62; 15.9 µM (inactive) in the experiment with UACC-257; 27.4 µM (inactive) in the experiment with NCI-H226; 28.8 µM (inactive) in the experiment with U-251; > 100 µM (inactive) in the experiment on SNB-19. For the same compound, the GI50 was 20.9 µM (inactive) in the experiment with A498, > 100 µM (inactive) in the experiment on OVCAR-4, 48.1 µM (inactive) with ACHN and 31.3 µM (inactive) in the experiment with SF-295.
With `CCOP(=O)(OCC)/C(C#N)=C(\C)c1ccco1`, the GI50 is > 10 µM (inactive) with SR; above 10 µM with HCT-15; > 10 µM (inactive) with CCRF-CEM; > 10 µM (inactive) with MOLT-4; > 10 µM (inactive) in the experiment with HT-29; > 10 µM (inactive) in the experiment with 786-0. Besides, the GI50 in the experiment with EKVX, in the experiment with UACC-62, with UACC-257, with NCI-H226, in the experiment with U-251 and with SNB-19 was > 10 µM (inactive) each time. Further, the GI50 in the experiment on NCI-H460, in the experiment with A498, in the experiment with SW-620, in the experiment on OVCAR-4, in the experiment on ACHN and in the experiment on SF-295 was > 10 µM (inactive) in each case.
Consider `COc1nc(C)nc2sc3c(c12)CCCC3`, for which the GI50 in the experiment on SR is > 100 µM (inactive); in the experiment on HCT-15 it was above 100 µM; in the experiment on MOLT-4 it was > 100 µM (inactive); in the experiment on HT-29, > 100 µM (inactive); in the experiment with 786-0 it was > 100 µM (inactive); in the experiment with EKVX, 38.4 µM (inactive). Also, the GI50 in the experiment with UACC-62, with UACC-257, in the experiment on NCI-H226, in the experiment with U-251, with SNB-19 and with NCI-H460 was > 100 µM (inactive) each time. In addition, the GI50 in the experiment with A498, in the experiment with SW-620, in the experiment with OVCAR-4, in the experiment on ACHN, in the experiment with SF-295 and with NCI-H522 was > 100 µM (inactive) each time.
With `CCCCCCCCCCCCOP(=O)(O)OCC(N)C(=O)O` (stereo unspecified), the GI50 in the experiment on SR is 22 µM (inactive); in the experiment on HCT-15, 17 µM; in the experiment with MOLT-4 it was 11.2 µM (inactive); in the experiment with HT-29, 43.3 µM (inactive); with 786-0, 30.2 µM (inactive); in the experiment on EKVX, 69.8 µM (inactive). Further, the GI50 is 37.2 µM (inactive) in the experiment with UACC-257; 19.7 µM (inactive) in the experiment on NCI-H226; 11.9 µM (inactive) with U-251; 16.3 µM (inactive) in the experiment with SNB-19; 13.6 µM (inactive) in the experiment with NCI-H460; 24.6 µM (inactive) in the experiment on A498. Moreover, the GI50 is 44.4 µM (inactive) in the experiment on SW-620; 39 µM (inactive) in the experiment with OVCAR-4; 34.1 µM (inactive) in the experiment with ACHN; 15.7 µM (inactive) with SF-295; 31.8 µM (inactive) in the experiment on NCI-H522.
Turning to `CC(=O)/N=C1/N(/C=C2\C(=O)Oc3ccccc3C2=O)C(=O)/C(=C/c2cccc(Cl)c2Cl)N1C`, the GI50 with SR was 10.8 µM (inactive); with HCT-15 it was 9.82 µM; in the experiment with CCRF-CEM it was 11.1 µM (inactive); with MOLT-4, 20.7 µM (inactive); in the experiment with HT-29 it was 19.1 µM (inactive); in the experiment with 786-0, 34.3 µM (inactive). In addition, the GI50 in the experiment with EKVX was 28.9 µM (inactive); in the experiment on UACC-62 it was 31 µM (inactive); with UACC-257, 39 µM (inactive); in the experiment with NCI-H226, 24 µM (inactive); in the experiment with U-251, 23.1 µM (inactive); with A498, 4.68 µM (inactive). The GI50 is 29.9 µM (inactive) with SW-620, 13.7 µM (inactive) with ACHN, 34.4 µM (inactive) in the experiment on SF-295 and 18.2 µM (inactive) in the experiment on NCI-H522.
Take `CO[C@H]1C[C@H](n2cc(C)c(=O)[nH]c2=O)O[C@@H]1CO`: the GI50 in the experiment with SR was > 100 µM (inactive); in the experiment with HCT-15, above 100 µM; in the experiment with CCRF-CEM it was > 100 µM (inactive); in the experiment with MOLT-4 it was > 100 µM (inactive); in the experiment with HT-29 it was > 100 µM (inactive); in the experiment on 786-0 it was > 100 µM (inactive). In addition, the GI50 in the experiment on EKVX, in the experiment on UACC-62, in the experiment on UACC-257, with NCI-H226, with U-251 and in the experiment on SNB-19 was > 100 µM (inactive) each time. Moreover, the GI50 in the experiment with NCI-H460, with A498, with SW-620, in the experiment with OVCAR-4, in the experiment on ACHN and in the experiment on SF-295 was > 100 µM (inactive) each time.
With `O=C(/C=C/c1ccccc1)Oc1ccc(C(=O)/C=C/c2ccc(Cl)cc2)cc1`, the GI50 in the experiment on SR was 3.23 µM (inactive); with CCRF-CEM it was 17.4 µM (inactive); in the experiment on MOLT-4 it was > 100 µM (inactive); in the experiment with HT-29, > 100 µM (inactive); with 786-0, 31.9 µM (inactive); in the experiment with EKVX, > 100 µM (inactive). The GI50 was > 100 µM (inactive) in the experiment on UACC-62; > 100 µM (inactive) in the experiment on UACC-257; 20.7 µM (inactive) in the experiment on U-251; 46.1 µM (inactive) in the experiment with SNB-19; 15.8 µM (inactive) in the experiment on NCI-H460; > 100 µM (inactive) in the experiment with A498. Further, the GI50 was > 100 µM (inactive) with SW-620, > 100 µM (inactive) in the experiment with ACHN and 82.6 µM (inactive) with SF-295.
For `CC(C)C[C@H](NC(=O)[C@H](Cc1ccccc1)NC(=O)c1cnccn1)B(O)O` [BORTEZOMIB], the GI50 in the experiment on SR is < 0.01 µM (active); in the experiment on HCT-15, below 0.01 µM; in the experiment with MOLT-4, < 0.01 µM (active); in the experiment on HT-29, < 0.01 µM (active); with 786-0 it was < 0.01 µM (active); in the experiment on EKVX, < 0.01 µM (active). For the same compound, the GI50 with UACC-62, in the experiment on UACC-257, in the experiment with U-251, in the experiment on NCI-H460, with A498 and with SW-620 was < 0.01 µM (active) throughout. In addition, the GI50 in the experiment with OVCAR-4, in the experiment on ACHN, in the experiment on SF-295 and in the experiment with NCI-H522 was < 0.01 µM (active) in each case.
